Paper PMC12206033, “Selective inhibition of TRPV3 channel by natural rosmarinic acid and its analogs for alleviation of skin lesions through downregulation of NF-κB pathway” (The Journal of Biological Chemistry, 2025)

What was measured:
hTRPV3 = biological target: T1, hTRPV3 (Homo sapiens, UniProt Q8NET8); assay: single-channel inside-out patch recordings of hTRPV3 in HEK293T cells; format: cell-based; details: for single-channel open probability: n = 5
T1 construct: expressed in transfected cells; host or cells: HEK293T
T1 sequence (Q8NET8 1-790): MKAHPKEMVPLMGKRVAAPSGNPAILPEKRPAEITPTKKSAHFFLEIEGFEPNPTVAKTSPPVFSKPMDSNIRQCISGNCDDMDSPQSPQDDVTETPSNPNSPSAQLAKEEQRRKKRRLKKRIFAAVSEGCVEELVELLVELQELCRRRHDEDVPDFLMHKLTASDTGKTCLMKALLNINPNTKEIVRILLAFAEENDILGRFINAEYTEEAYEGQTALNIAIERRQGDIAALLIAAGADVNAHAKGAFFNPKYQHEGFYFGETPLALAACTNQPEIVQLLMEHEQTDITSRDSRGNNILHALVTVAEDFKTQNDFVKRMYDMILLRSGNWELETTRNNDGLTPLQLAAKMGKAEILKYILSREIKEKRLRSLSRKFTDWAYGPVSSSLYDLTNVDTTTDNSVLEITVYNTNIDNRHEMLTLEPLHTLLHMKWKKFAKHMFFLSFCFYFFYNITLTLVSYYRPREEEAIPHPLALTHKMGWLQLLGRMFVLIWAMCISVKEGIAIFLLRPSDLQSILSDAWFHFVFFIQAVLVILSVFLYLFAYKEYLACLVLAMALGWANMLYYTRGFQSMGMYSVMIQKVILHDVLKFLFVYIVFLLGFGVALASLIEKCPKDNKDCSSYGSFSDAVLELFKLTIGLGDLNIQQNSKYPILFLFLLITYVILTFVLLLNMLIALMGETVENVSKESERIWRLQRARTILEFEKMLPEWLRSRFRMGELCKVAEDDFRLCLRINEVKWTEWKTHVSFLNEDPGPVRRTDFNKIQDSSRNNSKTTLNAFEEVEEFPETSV
Description: HEK293T cell line was obtained from the Cell Resource Center, Peking Union Medical College. HEK293T cells were maintained in Dulbecco’s modified Eagle’s medium (DMEM, Gibco) supplemented with 10% fetal bovine serum at 37 °C with 5% CO2. HEK293T cells were seeded onto glass coverslips 1 day in advance and transiently transfected with […] complementary deoxyribonucleic acids of human TRPV3 (hTRPV3, accession number NM_145068.4), hTRPV1 (accession number NM_080704.3), mTRPV2 (accession number NM_011706.2), hTRPV4 (accession number NM_021625.5), hTRPA1 (accession number NM_007332.3), and hTRPM8 (accession number NM_024080.5) through Lipofectamine 2000 (Invitrogen) following the manufacture’s protocol. The next day, determine the plasmid transfection status by observing green fluorescence based on expression of enhanced GFP as an indicator. […] As for the relative fluorescence intensity, we convert the image to 8 bit grayscale using ImageJ (Https://imagej.net/software/fiji/downloads) and set an appropriate threshold value to reduce background noise and enhance the image contrast.
All patch-clamp recordings were conducted 16 to 24 h after transfection using an EPC10 amplifier powered by PatchMaster software (HEKA) (https://www.heka.com/downloads/downloads_main.html#down_patchmaster) at room temperature. The borosilicate glass pipettes were pulled using a DMZ universal electrode puller (Zeitz-Instruments GmbH) to achieve the resistances of three to 5 MΩ (for whole-cell recordings) or five to 9 MΩ (for inside-out patch recordings). Currents were recorded at a potential ramp from −100 mV to +100 mV for 1000 ms with 1000-ms intervals (for whole-cell recordings) or a persistent potential of −60 mV (inside-out patch recordings). Both pipette solution and bath solution contained (in mM): 130 NaCl, 3 Hepes, and 0.2 EDTA (pH = 7.2–7.4). All recording data were analyzed using Igor Pro (Wave-metrics) (https://www.wavemetrics.com/order/order_igordownloads.htm) and Origin 8.6 (Origin Lab) (https://www.originlab.com/doc/zh/Quick-Help/Download-Installer).

hTRPV1 = biological target: T2, hTRPV1 (Homo sapiens, UniProt Q8NER1); assay: whole-cell patch-clamp of hTRPV1 currents activated by capsaicin; format: cell-based; details: ROSA 50 μM; agonist capsaicin 1 μM; read-out: inhibition of TRPV1 currents
T2 construct: expressed in transfected cells; host or cells: HEK293T
Description: HEK293T cell line was obtained from the Cell Resource Center, Peking Union Medical College. HEK293T cells were maintained in Dulbecco’s modified Eagle’s medium (DMEM, Gibco) supplemented with 10% fetal bovine serum at 37 °C with 5% CO2. […] The next day, determine the plasmid transfection status by observing green fluorescence based on expression of enhanced GFP as an indicator. […] When conducting experiments on HEK293T cells transfected with G573S point mutant TRPV3 plasmid, we replaced culture medium with or without compounds after 4 h of transfection and then observed green fluorescence of HEK293T cell after 10 h. As for the relative fluorescence intensity, we convert the image to 8 bit grayscale using ImageJ (Https://imagej.net/software/fiji/downloads) and set an appropriate threshold value to reduce background noise and enhance the image contrast.
All patch-clamp recordings were conducted 16 to 24 h after transfection using an EPC10 amplifier powered by PatchMaster software (HEKA) (https://www.heka.com/downloads/downloads_main.html#down_patchmaster) at room temperature. […] Currents were recorded at a potential ramp from −100 mV to +100 mV for 1000 ms with 1000-ms intervals (for whole-cell recordings) or a persistent potential of −60 mV (inside-out patch recordings). […]

T2 sequence (Q8NER1 whole entry): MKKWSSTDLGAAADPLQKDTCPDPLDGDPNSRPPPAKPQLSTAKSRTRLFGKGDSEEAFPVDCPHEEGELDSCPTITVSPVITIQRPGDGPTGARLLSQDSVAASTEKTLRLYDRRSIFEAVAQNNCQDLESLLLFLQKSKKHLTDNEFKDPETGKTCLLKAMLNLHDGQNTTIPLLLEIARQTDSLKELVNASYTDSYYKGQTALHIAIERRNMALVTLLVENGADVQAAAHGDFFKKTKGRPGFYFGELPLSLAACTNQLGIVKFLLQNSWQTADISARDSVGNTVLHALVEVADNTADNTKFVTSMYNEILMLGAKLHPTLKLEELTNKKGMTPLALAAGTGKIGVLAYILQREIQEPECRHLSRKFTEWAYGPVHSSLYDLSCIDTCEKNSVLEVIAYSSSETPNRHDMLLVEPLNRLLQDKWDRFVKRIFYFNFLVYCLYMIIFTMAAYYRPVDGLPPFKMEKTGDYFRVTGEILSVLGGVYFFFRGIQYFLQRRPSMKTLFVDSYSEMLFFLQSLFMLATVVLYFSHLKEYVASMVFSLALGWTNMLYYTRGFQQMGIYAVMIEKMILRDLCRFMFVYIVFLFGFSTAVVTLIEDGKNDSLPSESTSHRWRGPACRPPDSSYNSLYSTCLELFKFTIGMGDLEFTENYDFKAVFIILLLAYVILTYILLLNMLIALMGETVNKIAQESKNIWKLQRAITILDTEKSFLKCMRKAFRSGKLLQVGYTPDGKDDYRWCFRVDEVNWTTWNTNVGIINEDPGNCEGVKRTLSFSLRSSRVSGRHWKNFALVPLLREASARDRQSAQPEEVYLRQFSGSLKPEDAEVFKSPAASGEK

## O=C(/C=C/c1ccc(O)c(O)c1)O[C@H](Cc1ccc(O)c(O)c1)C(=O)O [ROSA, rosmarinic acid]
hTRPV3; ROSA 100 μM co-perfused with 2-APB 50 μM
  single-channel open probability: 0.13 ± 0.05
hTRPV3; ROSA 100 μM co-perfused with Car 300 μM
  single-channel open probability: 0.28 ± 0.06
hTRPV3; ROSA 100 μM with 2-APB 50 μM or Car 300 μM
  effect on channel unitary conductance: without altering the channel unitary conductance
hTRPV1
  inhibition at 50 µM: 1.8 ± 11.7%
